# Key:
# [1] = tested on: A549; test: Cytotoxicity against human A549 cells; format: functional, cell-based
# [2] = tested on: MCF7; test: Cytotoxicity against human MCF7 cells; format: functional, cell-based
# [3] = tested on: Agrobacterium tumefaciens; test: Inhibition of growth of crown gall tumors in Agrobacterium tumefaciens with tumor-inducing plasmid on potato disk; format: functional
# [4] = Toxicity in Artemia salina; format: organism-based; settings: in vivo
# [5] = tested on: HT-29; test: Cytotoxicity against human HT29 cells; format: functional, cell-based
Compound,IC50 [1] [µg/mL],IC50 [2] [µg/mL],inhibition (INH) [3] [%],LC50 [4] [µg/mL],IC50 [5] [µg/mL]
CCCCCCCCCCCCCC[C@H](O)[C@@H]1CC[C@H]([C@H](O)CC[C@H](O)CCCCC[C@@H](O)CC2=C[C@H](C)OC2=O)O1,0.13,1.05,47,5.2,0.0053
CCCCCCCCCCCC[C@@H]1OCO[C@H](CCC[C@H](O)CCCCC[C@@H](O)CC2=C[C@H](C)OC2=O)[C@@H]2CC[C@@H]1O2,0.079,2.6,22,,2.1
CCCCCCCCCCCC[C@H](O)[C@@H]1CC[C@H]([C@H](O)CCCCC(=O)CCCCC[C@@H](O)CC2=C[C@H](C)OC2=O)O1,0.35,0.29,32,1.8,0.0009
CCCCCCCCCCCC[C@H](O)[C@@H]1CC[C@H]([C@H](O)CCCC[C@H](O)CCCCC[C@@H](O)CC2=C[C@H](C)OC2=O)O1,0.23,1.18,28,2.3,
CCCCCCCCCCCCCC[C@H](O)[C@@H]1CC[C@H]([C@H]2CC[C@@H](CCCCC[C@@H](O)CC3=C[C@H](C)OC3=O)OCO2)O1,0.53,0.52,21,,2.6
CCCCCCCCCCCC[C@@H](O)[C@H]1CC[C@H]([C@H]2CC[C@H](CCCCCCC[C@@H](O)CC3=C[C@H](C)OC3=O)OCO2)O1 [ARIANACIN FORMAL],0.02,8.5,28,,1
CCCCCCCCCCCC[C@@H](O)[C@H]1CC[C@H]([C@H](O)CC[C@@H](O)CCCCCCC[C@@H](O)CC2=C[C@H](C)OC2=O)O1 [ARIANACIN],0.0047,0.4,26,7.1,4.4
COc1cccc2c1C(=O)c1c(O)c3c(c(O)c1C2=O)C[C@@](O)(C(=O)CO)C[C@@H]3O[C@H]1C[C@H](N)[C@H](O)[C@H](C)O1 [DOXORUBICIN],0.0004,,,,0.00051
CCCCCCCCCCCCCC[C@@H](O)[C@H]1CC[C@H]([C@H]2CC[C@@H](CCCCC[C@@H](O)CC3=C[C@H](C)OC3=O)OCO2)O1 [GONIOTHALAMICIN FORMAL],0.025,1.03,,,1.13
CCCCCCCCCCCCCC[C@@H](O)[C@H]1CC[C@H]([C@H](O)CC[C@H](O)CCCCC[C@@H](O)CC2=C[C@H](C)OC2=O)O1 [GONIOTHALAMICIN],0.008,0.057,,0.6,0.0011
CCCCCCCCCCCC[C@@H](O)[C@H]1CC[C@H]([C@H]2CC[C@@H](CCCCCCC[C@@H](O)CC3=C[C@H](C)OC3=O)OCO2)O1 [JAVORICIN FORMAL],0.02,2.9,31,,5.6
CCCCCCCCCCCC[C@@H](O)[C@H]1CC[C@H]([C@H](O)CC[C@H](O)CCCCCCC[C@@H](O)CC2=C[C@H](C)OC2=O)O1 [JAVORICIN],0.017,0.23,47,4.9,1.8

# From ChEMBL document CHEMBL1158187, “Five novel mono-tetrahydrofuran ring acetogenins from the seeds of Annona muricata” (J Nat Prod, 1996)
